Source: ChEMBL document CHEMBL4376816, “Discovery of the Oral Leukotriene C4 Synthase Inhibitor (1S,2S)-2-({5-[(5-Chloro-2,4-difluorophenyl)(2-fluoro-2-methylpropyl)amino]-3-methoxypyrazin-2-yl}carbonyl)cyclopropanecarboxylic Acid (AZD9898) as a New Treatment for Asthma” (J Med Chem, 2019)

Assays:
[1] = system: Rattus norvegicus; test: In vivo inhibition of LTC4S in po dosed Sprague-Dawley rat assessed as unbound drug concentration required for inhibition of calcium ionophore A23187-induced cysteinyl leukotrienes production in BAL fluid by LC-MS/MS analysis; assay type: functional
[2] = Effective half life in Han Wistar rat at 0.5 mg/kg, iv or 1 mg/kg, po after 24 hrs; assay type: ADME, organism-based; settings: in vivo, read-out: t1/2eff (converted)

half-life [2]: 26 h
SMILES: COc1nc(N(CC(C)(C)F)c2cc(Cl)c(F)cc2F)cnc1C(=O)[C@H]1C[C@@H]1C(=O)O [AZD-9898]
fEC50 [1]: 34 nM
